Measurements from US20180064811A1, “PHARMACEUTICAL COMBINATIONS COMPRISING CD33 ANTIBODIES AND DE-METHYLATING AGENTS” (Boehringer Ingelheim International GmbH, priority 2013, published 2018).

System: HL60 cells
Experiment: ADCC (LDH release) of CD33 antibody CD33-1 with PBMC effector cells pre-treated with de-methylating agents
Format: cell-based, human
Conditions: for Relative Cytolysis (%): ADCC of CD33-1 on HL60 target cells, human PBMC effector cells pre-treated with 100 nM de-methylating agent for 3 to 6 days, E:T 25:1, relative to untreated PBMC (100), 3 independent assays; for impact on ADCC of mAb 33-1: effector cells (PBMC) treated with 100 nM for 3 to 6 days, compared with untreated effector cells
Description: The ability CD33 antibodies to mediate antibody-dependent cell-mediated cytotoxicity (ADCC) in the presence of effector cells pre-treated with demethylating agents is assessed using HL60 cells as target cells and human PBMCs as effector cells.
Preparation of target cells (HL-60 acute myeloid leukemia, DSMZ #ACC3)
An aliquot of the cell culture at a cell density between 1.5×10^6/m1 and 1.8×10^6/m1 and growing in the log-phase is centrifuged (200×g, i.e. 1000 rpm) for 10 min. Cells are washed once with washing medium (RPMI 1640 w/o L-glutamine) and pelleted (200×g, i.e. 1000 rpm; 10 min). Cell pellet is suspended in assay medium (1% BSA; AlbuMAX II (Gibco 11021-037)) and cell count is determined. Cell concentration is adjusted to 2×10^5/ml.
Approximately 100 ml whole blood drawn from healthy donors is used for the isolation of PBMC. 10 ml whole blood are diluted 1:3.6 with 26 ml HBSS (Gibco 14170-088; Paisley, Scotland) in a 50 ml tube. 18 ml diluted whole blood is layered on top of 12 ml Lymphoprep (Nycomed Pharma AS 1053980) in a 50 ml tube and centrifuged at 370×g (1400 rpm) for 35 min. The mononuclear cells from the interface are aspirated and washed first with HBSS (750×g, i.e. 1900 rpm; 10 min), then a second time with HBSS (300×g, i.e. 1200 rpm; 10 min) and finally with HBSS (160×g, i.e. 900 rpm; 10 min). The pelleted cells are gently suspended in culture medium/assay medium (10% heat-inactivated human AB serum in RPMI 1640 w/o L-glutamine) using a pipette and the cell count is determined in the cell counter. The PBMC concentration is adjusted to 1×10^7/ml.
The freshly isolated PBMC (5×10^5/m1) are pre-treated with de-methylating agents in culture medium (RPMI 1640 w/o L-glutamine supplemented with 10% human AB serum and decitabine or 5-azacytidine at a final concentration of 100 nM) in a tissue culture flask (75 cm^2) at 37° C. in CO2 incubator for 3 to 6 days. De-methylating agent treated PBMC are separated from cell debris on a Lymphoprep gradient. The purified de-methylating agent treated PBMC are suspended in culture medium/assay medium ata concentration of 1×10^7/ml.
For all tested cell lines an E:T ratio of 25:1 is used. The co-cultivation of effector cells with target cells in presence of test antibody is performed in quadruplicates in 96-well round-bottom microtiter plates (Costar #3799) in a final volume of 200 μl assay medium per well consisting of 10% human AB serum and 1% BSA in RPMI in 1:1 ratio. In each experimental run two plates are assayed in parallel. First effector cells (PBMC cells in 100 μl 10% human AB serum in RPMI per well) are plated, followed by target cells (in 50 μl 1% BSA in RPMI per well) and antibody solution (candidate antibody diluted in 50 μl 1% BSA in RPMI). As a control, effector cells are cultivated in assay medium alone (effector cell control) and target cells are cultivated either in assay medium alone (spontaneous lysis) or in assay medium supplemented with 1% Triton X-100 (maximal lysis). The co-culture is incubated at 37° C. in a humid CO^2 incubator for 3 to 4 hours.
At the end of the incubation cells are removed from the culture medium by centrifugation (200×g, i.e. 1000 rpm; 10 min) at room temperature. Cell free supernatants (100 μl/well) are transferred into corresponding wells of a 96-well flat-bottom plate (Costar #3595). To determine the LDH activity in these supernatants 100 μl reaction mixture (freshly mixed 250 μl catalyst with 11.25 ml dye solution) are added to each well and incubated 30 min at room temperature in the dark. Then the absorbance is measured as described below.
Cytotoxicity Detection Kit (LDH Roche #11 644 793 001) is used to determine ADCC activity. The assay is based on the measurement of LDH enzyme activity released from plasma membrane-damaged cells. LDH released into the culture supernatants reduces the tetrazolium salt from the kit to formazan. […]

SMILES	Relative Cytolysis (%)	Relative Cytolysis (%) (listed as 5-azacytidine)	impact on ADCC of mAb 33-1	Relative Cytolysis (%) (listed as decitabine)
Nc1ncn([C@@H]2O[C@H](CO)[C@@H](O)[C@H]2O)c(=O)n1 [5-Azacitidine, 4-amino-1-β-D-ribofuranosyl-1,3,5-triazin-2(1H)-one]	107	98	did not significantly impact	–
Nc1ncn([C@H]2C[C@H](O)[C@@H](CO)O2)c(=O)n1 [Decitabine, 4-Amino-1-(2-deoxy-β-D-erythro-pentofuranosyl)-1,3,5-triazin-2(1H)-one]	98	–	did not significantly impact	107
